Test results: patent US20020138123A1, “Medical electrical leads and indwelling catheters with enhanced biocompatibility and biostability” (Medtronic, Inc., priority 1998, published 2002)

Columns and labels:
Format in all cases: cell-based
human Mo/MØs = experiment: Morphology of Mo/MØ monolayers on polyetherurethane cultured with DSP (OM, SEM); settings: human Mo/MØs on PEU cultured with DSP in media, versus standard media
Procedure: Blood was anticoagulated with 2 units/ml sodium heparin (Upjohn Co., Kalamazoo, Mich.). Mononuclear cells (lymphocytes, monocytes) were isolated within 15 minutes by a one-step density gradient centrifugation procedure using Isopaque-1077 (a density gradient solution) according to a modified Boyum's method (Boyum et al., Blood Separation and Plasma Fractionation, 217-239, Wiley-Liss, Inc. (1991)). The mononuclear cells were harvested and washed twice with cold Hanks balanced salt solution (HBSS) without Ca^2+ and Mg^2+ to minimize cell aggregation. The cells were then resuspended in standard media (RPMI-1640, 10% Fetal bovine serum, 0.2M L-glutamine, 10 Ul/ml Penicillin-G, and 0.1 mg/ml Streptomycin). The cell suspension was seeded into several plastic tissue culture flasks and incubated in the presence of 5% CO2 at 37° C. for 1 hour (Ackerman et al., J. Immunol., 20, 1372-1374 (1978)). After this incubation, adherent (monocytes) were gently scrapped from the surface and resuspended in standard media. Nonadherent cells (lymphocytes) contained in the supernatant were recovered into sterile tubes, and the remaining nonadherent cells washed off with cold HBSS. […] The polymer surfaces were also evaluated using SEM following the 10-day treatment with FeCl2. […]

IL-1α = experiment: Cytokine analysis, in vitro expression of IL-1α; settings: human primary monocytes; DEX 2.5, 0.25, 0.025 μg/ml; methotrexate 50, 5, 0.5 μg/ml; dose- and incubation time-dependent
Procedure: (§1) In order to assess the in vitro expression of IL-1α and IL-8, human primary monocytes were incubated with various concentrations of DEX (2.5, 0.25, and 0.025 μg/ml) and methotrexate (50, 5, and 0.5 μg/ml).

IL-8 = experiment: Cytokine analysis, in vitro expression of IL-8; settings: human primary monocytes; DEX 2.5, 0.25, 0.025 μg/ml; methotrexate 50, 5, 0.5 μg/ml; dose- and incubation time-dependent
Procedure: as §1

SMILES	cell size of Mo/MØ monolayers (OM) (human Mo/MØs)	IL-1 inhibition (IL-1α)	IL-8 inhibition (IL-8)
C[C@@H]1C[C@H]2[C@@H]3CCC4=CC(=O)C=C[C@]4(C)[C@@]3(F)[C@@H](O)C[C@]2(C)[C@@]1(O)C(=O)COP(=O)(O)O [DSP, dexamethasone sodium phosphate]	no increase in cell size		
CN(Cc1cnc2nc(N)nc(N)c2n1)c1ccc(C(=O)N[C@@H](CCC(=O)O)C(=O)O)cc1 [methotrexate]		higher rate of IL-1 and IL-8 inhibition	higher rate of IL-1 and IL-8 inhibition
